From patent publication US9040701B2, “Apaf-1 inhibitor compounds” (LABORATORIOS SALVAT, S.A., priority 2009, dated 2015)

The compounds below were run against T1, Recombinant Apaf-1 produced in insect cells (rApaf-1) (Homo sapiens, UniProt O14727) (assay: In vitro apoptosome formation inhibition assay). Conditions: compound at 10 μM; rApaf-1 40 nM, dATP/Mg 100 μM, horse cytochrome c 0.1 μM, rprocaspase-9 0.1 μM; caspase-9 substrate Ac-LEDH-afc, afc release at 37° C.
T1 construct: made in house; host or cells: insect cells (Apaf-1); E. coli (procaspase-9); cytochrome c purchased from Sigma
T1 sequence (O14727 1-1248): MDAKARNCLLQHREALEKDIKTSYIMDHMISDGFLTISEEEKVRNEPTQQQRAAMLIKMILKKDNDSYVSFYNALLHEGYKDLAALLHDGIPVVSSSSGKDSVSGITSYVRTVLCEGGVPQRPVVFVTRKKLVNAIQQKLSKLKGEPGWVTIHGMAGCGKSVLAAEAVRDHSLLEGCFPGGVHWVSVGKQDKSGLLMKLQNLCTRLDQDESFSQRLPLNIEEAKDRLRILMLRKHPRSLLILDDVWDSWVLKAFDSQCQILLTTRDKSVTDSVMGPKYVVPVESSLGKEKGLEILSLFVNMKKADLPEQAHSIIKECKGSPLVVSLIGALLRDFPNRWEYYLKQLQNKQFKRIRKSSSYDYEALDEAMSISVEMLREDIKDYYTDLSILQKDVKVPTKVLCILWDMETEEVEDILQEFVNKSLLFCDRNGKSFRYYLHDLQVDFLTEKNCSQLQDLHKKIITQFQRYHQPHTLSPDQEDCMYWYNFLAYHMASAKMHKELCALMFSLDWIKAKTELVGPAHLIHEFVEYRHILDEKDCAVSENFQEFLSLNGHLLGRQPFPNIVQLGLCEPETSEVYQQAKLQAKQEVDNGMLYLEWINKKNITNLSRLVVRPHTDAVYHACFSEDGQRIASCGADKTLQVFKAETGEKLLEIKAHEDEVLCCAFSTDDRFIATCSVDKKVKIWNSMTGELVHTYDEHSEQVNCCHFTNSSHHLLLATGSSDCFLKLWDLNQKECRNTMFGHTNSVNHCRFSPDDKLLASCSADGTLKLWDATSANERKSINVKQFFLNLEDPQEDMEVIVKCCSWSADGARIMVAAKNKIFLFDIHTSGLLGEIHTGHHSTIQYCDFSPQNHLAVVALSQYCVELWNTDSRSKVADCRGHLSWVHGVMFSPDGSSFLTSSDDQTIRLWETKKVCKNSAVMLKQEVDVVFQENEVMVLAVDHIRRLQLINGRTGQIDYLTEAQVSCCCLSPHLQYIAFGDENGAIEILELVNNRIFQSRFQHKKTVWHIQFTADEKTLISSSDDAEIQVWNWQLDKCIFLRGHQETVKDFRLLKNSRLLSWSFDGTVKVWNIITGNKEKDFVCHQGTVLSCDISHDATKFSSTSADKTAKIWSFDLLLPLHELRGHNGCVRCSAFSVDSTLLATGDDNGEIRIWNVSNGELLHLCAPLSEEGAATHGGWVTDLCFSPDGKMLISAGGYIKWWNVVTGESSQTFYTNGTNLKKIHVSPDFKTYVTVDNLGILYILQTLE
Type: biochemical
Method: Recombinant Apaf-1 produced in insect cells (rApaf-1) was incubated in the presence (at a concentration of 10 μM) or absence (as control) of the compounds to be evaluated in the assay buffer (20 mM Hepes-KOH pH 7.5, 10 mM KCl, 1.5 mM MgCl2, 1 mM EDTA, 1 mM EGTA, 1 mM DTT, 0.1 mM PMSF) for 15 minutes at 30° C. The final rApaf-1 concentration was 40 nM. dATP/Mg (Sigma) and purified horse cytochrome c (Sigma) were then added achieving final concentrations of 100 μM and 0.1 μM, respectively. It was incubated for 60 minutes at 30° C. and recombinant procaspase-9 produced in E. coli (rprocaspase-9, final concentration 0.1 μM) was then added and it was incubated for 10 minutes at 30° C. before adding the caspase-9 fluorogenic substrate Ac-LEDH-afc (final concentration 50 μM). The total assay volume was 200 μL. The caspase activity was continuously monitored by means of the afc release at 37° C. in a Wallac 1420 Workstation (λexc=390 nm, λem=510 nm).
The activity values of some compounds described in the examples are indicated in the following table expressed as the percentage of Apaf-1 inhibition.
NC(=O)CN(CCc1ccccn1)C(=O)CC1C(=O)N(CCc2ccc(Cl)cc2Cl)CC(=O)N1CCC(c1ccccc1)c1ccccc1 (stereo not shown) [I.1.16, N-(2-amino-2-oxoethyl)-2-(4-(2,4-dichlorophenethyl)-1-(3,3-diphenylpropyl)-3,6-dioxopiperazin-2-yl)-N-(2-(pyridin-2-yl)ethyl)acetamide] was tested, and the inhibition at 10 µM was 46%. For CCC(C)N(CC(N)=O)C(=O)CC1C(=O)N(CCc2ccc(Cl)cc2Cl)CC(=O)N1CCC(c1ccccc1)c1ccccc1 (stereo not shown) [I.1.20, N-(2-amino-2-oxoethyl)-N-(sec-butyl)-2-(4-(2,4-dichlorophenethyl)-1-(3,3-diphenylpropyl)-3,6-dioxopiperazin-2-yl)acetamide], the inhibition at 10 µM was 36%. Work on NC(=O)CN(CCc1ccc(Cl)cc1Cl)C(=O)CC1C(=O)N(CCc2ccc(Cl)cc2Cl)CC(=O)N1CCc1ccc(-c2ccccc2)cc1 (stereo not shown) [Ia.6.2, 2-(1-(2-([1,1′-biphenyl]-4-yl)ethyl)-4-(2,4-dichlorophenethyl)-3,6-dioxopiperazin-2-yl)-N-(2-amino-2-oxoethyl)-N-(2,4-dichlorophenethyl)acetamide] yielded an inhibition at 10 µM of 29%. Work on O=C(O)CN(CCc1ccc(Cl)cc1Cl)C(=O)CC1C(=O)N(CCc2ccc(Cl)cc2Cl)CC(=O)N1CCC(c1ccccc1)c1ccccc1 (stereo not shown) [Ib.1.2, 2-(N-(2,4-dichlorophenethyl)-2-(4-(2,4-dichlorophenethyl)-1-(3,3-diphenylpropyl)-3,6-dioxopiperazin-2-yl)acetamido) acetic acid] yielded an inhibition at 10 µM of 72%. O=C(O)CN(CCc1ccc(Cl)cc1Cl)C(=O)CC1C(=O)N(CCc2ccc(Cl)cc2Cl)CC(=O)N1Cc1ccc(F)cc1 (stereo not shown) [Ib.2.2, 2-(N-(2,4-dichlorophenethyl)-2-(4-(2,4-dichlorophenethyl)-1-(4-fluorobenzyl)-3,6-dioxopiperazin-2-yl)acetamido) acetic acid] was tested, and the inhibition at 10 µM was 28%. With O=C(O)CN(CCc1ccc(Cl)cc1Cl)C(=O)CC1C(=O)N(CCc2ccc(Cl)cc2Cl)CC(=O)N1CCc1c[nH]c2ccccc12 (stereo not shown) [Ib.3.2, 2-(2-(1-(2-(1H-indol-3-yl)ethyl)-4-(2,4-dichlorophenethyl)-3,6-dioxopiperazin-2-yl)-N-(2,4-dichlorophenethyl)acetamido) acetic acid] the inhibition at 10 µM was 48%. For COC(=O)CN(CCc1ccc(Cl)cc1Cl)C(=O)CC1C(=O)N(CCc2ccc(Cl)cc2Cl)CC(=O)N1CCc1c[nH]c2ccccc12 (stereo not shown) [Ic.3.2, Methyl 2-(2-(1-(2-(1H-indol-3-yl)ethyl)-4-(2,4-dichlorophenethyl)-3,6-dioxopiperazin-2-yl)-N-(2,4-dichlorophenethyl)acetamido)acetate], the inhibition at 10 µM was 29%. For COC(=O)CN(CCc1ccc(Cl)cc1Cl)C(=O)CC1C(=O)N(CCc2ccc(Cl)cc2Cl)CC(=O)N1CCc1c[nH]c2ccc(OC)cc12 (stereo not shown) [Ic.5.2, Methyl 2-(N-(2,4-dichlorophenethyl)-2-(4-(2,4-dichlorophenethyl)-1-(2-(5-methoxy-1H-indol-3-yl)ethyl)-3,6-dioxopiperazin-2-yl)acetamido)acetate], the inhibition at 10 µM was 23%. Compound COc1ccc2[nH]cc(CCN3C(=O)CN(CCc4ccc(Cl)cc4Cl)C(=O)C3CC(=O)NCCc3ccc(Cl)cc3Cl)c2c1 (stereo not shown) [Id.5.2, N-(2,4-dichlorophenethyl)-2-(4-(2,4-dichlorophenethyl)-1-(2-(5-methoxy-1H-indol-3-yl)ethyl)-3,6-dioxopiperazin-2-yl)acetamide] has an inhibition at 10 µM of 40%. For NCCCCC(NC(=O)CN(CCc1ccc(Cl)cc1Cl)C(=O)CC1C(=O)N(CCc2ccc(Cl)cc2Cl)CC(=O)N1CCC(c1ccccc1)c1ccccc1)C(N)=O (stereo not shown) [If.1.2, 6-amino-2-(2-(N-(2,4-dichlorophenethyl)-2-(4-(2,4-dichlorophenethyl)-1-(3,3-diphenylpropyl)-3,6-dioxopiperazin-2-yl)acetamido)acetamido)hexanamide], the inhibition at 10 µM was 80%.
